# Patent US20050074834A1 (priority 2001, published 2005)
# Entries after “also recorded” stand apart in the source; their conditions may differ. Structures can show the parent of a compound that is named as a salt.
# How the values were obtained:
# chromatophores [1] = type: cell-based
# chromatophores [2] = test system: chromatophores
# melanophores = type: cell-based
# Betta chromatophores [3] = type: cell-based
# xanthophores = type: cell-based
# iridophores = type: cell-based
# [4] = test system: Hemichromis bimaculatus chromatophores; type: cell-based
# Betta chromatophores [5] = type: cell-based, Betta splendens
# [6] = test system: chromatophore/bacterial cell; type: cell-based
# chromatophores [7] = assay: cells; details: read-out: Threshold concentration PPM
# fish chromatophores = type: cell-based
# [8] = test system: chromatophore/protozoal cell; type: cell-based
# [9] = test system: chromatophore/neuronal cell; type: cell-based
# [10] = test system: Betta splendens erythrophores; type: cell-based
# erythrophores = type: cell-based
# ryanodine receptors = details: cited from earlier work
# [11] = test system: Betta splendens chromatophores; type: cell-based
# [12] = test system: chromatophore/fungal cell; type: cell-based
compound,measurement,setting,value
Cn1c(=O)c2c(ncn2C)n(C)c1=O [Caffeine],concentration printed for an analyte to which chromatophores respond,chromatophores [1],100 µM
same,Threshold concentration PPB,chromatophores [2],XXX
"Pertussis toxin: Bacterial toxin, Pertussis toxin",Chromatophore response Melanophores,melanophores,Imp.
same,selective sensitivity of color classes of chromatophores,Betta chromatophores [3],melanophores to pertussis toxin
same,Response time Hr.,chromatophores [2],X (key: X=1-6 hr; XX=6-24 hr)
same,Threshold concentration PPM,chromatophores [2],X (key: X=1 to 100 PPM; XX=100 to 1000 PPM)
NC[C@H](O)c1ccc(O)c(O)c1 [Norepinephrine],Chromatophore response Xanthophores,xanthophores,Disp.
same,Chromatophore response Iridophores,iridophores,Hue changes (FS)
same,appearance of Betta chromatophores after exposure,Betta chromatophores [3],aggregation of chromatophore pigment is apparent
same,change of appearance of Hemichromis bimaculatus chromatophores,[4],change the appearance
same,response time of the cytosensor,Betta chromatophores [5],less than 1 minute
[H]/N=C(/N)N[C@H]1[C@H](O)[C@@H](O)[C@H](O[C@@H]2O[C@@H](C)[C@](O)(C=O)[C@H]2O[C@@H]2O[C@@H](CO)[C@H](O)[C@@H](O)[C@@H]2NC)[C@@H](N/C(N)=N\[H])[C@@H]1O [Streptomycin],2-Cell Cytosensor (second cell type included),[6],Normal
same,Response time Hr.,chromatophores [2],XX (key: X=1-6 hr; XX=6-24 hr)
same,minimal effective concentration,chromatophores [7],1 to 100 µg/mL
c1ccc2c(c1)CCCC2C1=NCCN1 (stereo not drawn) [Tetrahydrozoline],Chromatophore response Xanthophores,xanthophores,Disp.
same,Threshold concentration PPB,chromatophores [2],XX (key: X=1 to 100 PPB; XX=100 to 1000 PPB)
Clc1cccc(Cl)c1N=C1NCCN1 [Clonidine],Chromatophore response Xanthophores,xanthophores,Disp.
same,chromatophore response after forskolin and PMSF,fish chromatophores,no aggregation occurred
same,chromatophore response in the absence of forskolin,fish chromatophores,aggregate; also recorded: aggregation
same,chromatophore response in the presence of forskolin,fish chromatophores,unresponsive; also recorded: not detectable
same,Threshold concentration PPB,chromatophores [2],XX (key: X=1 to 100 PPB; XX=100 to 1000 PPB)
C=C[C@H]1C[N@@]2CC[C@H]1C[C@H]2[C@H](O)c1ccnc2ccc(OC)cc12 [Quinine sulfate],2-Cell Cytosensor (second cell type included),[8],Normal
same,Response time Hr.,chromatophores [2],XX (key: X=1-6 hr; XX=6-24 hr)
same,minimal effective concentration,chromatophores [7],100 to 1000 µg/mL
Nc1ncnc2c1ncn2[C@@H]1O[C@H](COP(=O)(O)OP(=O)(O)OP(=O)(O)O)[C@@H](O)[C@H]1O [ATP],2-Cell Cytosensor (second cell type included),[9],Erythr. Aggr.
same,Threshold concentration PPM,chromatophores [2],X (key: X=1 to 100 PPM; XX=100 to 1000 PPM)
Ryanodine,Morphology Effect: Aggregation,[10],Yes and No
same,Morphology Effect: Dispersion,[10],No
same,Chromatophore response Erythrophores,erythrophores,Aggr.
same,Threshold concentration PPB,chromatophores [2],XX (key: X=1 to 100 PPB; XX=100 to 1000 PPB)
same,concentrations at which ryanodine acts as an antagonist of the same receptors,ryanodine receptors,> 1 µM
Cholera toxin,Chromatophore response Erythrophores,erythrophores,Imp.
same,chromatophore appearance after exposure,Betta chromatophores [3],Pigment aggregation is evident
same,pigment aggregation in response to norepinephrine after pre-incubation with CTX,Betta chromatophores [3],impaired pigment aggregation in response to NE
same,selective sensitivity of color classes of chromatophores,Betta chromatophores [3],selective sensitivity of erythrophores to cholera toxin
same,change of appearance of Hemichromis bimaculatus chromatophores,[4],change the appearance
same,erythrophore response upon norepinephrine exposure,[4],impaired
same,melanophore response upon challenge by norepinephrine,[4],unimpaired
same,concentration at which inhibition of norepinephrine induced pigment aggregation is detected,[11],≥ 1 ng/mL
same,effect on Betta splendens chromatophores,[11],causes hyperdispersion
same,Response time Hr.,chromatophores [2],X (key: X=1-6 hr; XX=6-24 hr)
same,Threshold concentration PPM,chromatophores [2],X (key: X=1 to 100 PPM; XX=100 to 1000 PPM)
C[C@]12CCC(=O)C=C1CC[C@@H]1[C@@H]2[C@@H](O)C[C@@]2(C)[C@H]1CC[C@]2(O)C(=O)CO [Hydrocortisone],Chromatophore response Melanophores,melanophores,Hyp. D.
same,Chromatophore response Erythrophores,erythrophores,HypD.
same,Response time Hr.,chromatophores [2],XX (key: X=1-6 hr; XX=6-24 hr)
C=C[C@@]1(C)CC(=O)[C@]2(O)[C@@]3(C)[C@@H](O)CCC(C)(C)[C@@H]3[C@H](O)[C@H](OC(C)=O)[C@@]2(C)O1 [Forskolin],concentration printed for an analyte to which chromatophores respond,chromatophores [1],0.01 µM
same,Threshold concentration PPB,chromatophores [2],XX (key: X=1 to 100 PPB; XX=100 to 1000 PPB)
C[C@@H]1[C@H](O)[C@@H](C)/C=C/C=C/C=C/C=C/C=C/C=C/C=C/[C@H](O[C@@H]2O[C@H](C)[C@@H](O)[C@H](N)[C@@H]2O)C[C@@H]2O[C@](O)(C[C@@H](O)C[C@@H](O)[C@H](O)CC[C@@H](O)C[C@@H](O)CC(=O)O[C@H]1C)C[C@H](O)[C@H]2C(=O)O [Amphotericin B],2-Cell Cytosensor (second cell type included),[12],Normal
same,Response time Hr.,chromatophores [2],XX (key: X=1-6 hr; XX=6-24 hr)
same,Threshold concentration PPM,chromatophores [2],X (key: X=1 to 100 PPM; XX=100 to 1000 PPM)
CCN(CC)CCCC(C)Nc1ccnc2cc(Cl)ccc12 (stereo not drawn) [Chloroquine],2-Cell Cytosensor (second cell type included),[8],Normal
same,Response time Hr.,chromatophores [2],XX (key: X=1-6 hr; XX=6-24 hr)
same,minimal effective concentration,chromatophores [7],100 to 1000 µg/mL
c1ccc2c(CC3=NCCN3)cccc2c1 [Naphazoline],Chromatophore response Xanthophores,xanthophores,Disp.
same,Threshold concentration PPB,chromatophores [2],XX (key: X=1 to 100 PPB; XX=100 to 1000 PPB)
COC(=O)C=C(C)OP(=O)(OC)OC [Mevinphos],Chromatophore response Melanophores,melanophores,Imp.
same,Chromatophore response Erythrophores,erythrophores,Imp. (FS)
same,Chromatophore response Iridophores,iridophores,"Hue change, then Imp."
same,Response time Hr.,chromatophores [2],X (key: X=1-6 hr; XX=6-24 hr)
C[N+](C)(C)CCOC(N)=O [Carbachol],2-Cell Cytosensor (second cell type included),[9],Erythr. Aggr.
same,minimal effective concentration,chromatophores [7],1 to 100 µg/mL
COP(=O)(OC)OC=C(Cl)Cl [Dichlorvos],Chromatophore response Erythrophores,erythrophores,Imp. (FS)
same,Chromatophore response Iridophores,iridophores,"Hue change, then Imp."
same,Response time Hr.,chromatophores [2],X (key: X=1-6 hr; XX=6-24 hr)
Cc1cc(C(C)(C)C)c(O)c(C)c1CC1=NCCN1 [Oxymetazoline],Chromatophore response Xanthophores,xanthophores,Disp.
same,Threshold concentration PPB,chromatophores [2],XX (key: X=1 to 100 PPB; XX=100 to 1000 PPB)
Penicillin,2-Cell Cytosensor (second cell type included),[6],Normal
same,Response time Hr.,chromatophores [2],XX (key: X=1-6 hr; XX=6-24 hr)
same,Threshold concentration PPM,chromatophores [2],X (key: X=1 to 100 PPM; XX=100 to 1000 PPM)
Cc1ncc([N+](=O)[O-])n1CCO [Metronidazole],2-Cell Cytosensor (second cell type included),[8],Normal
same,Response time Hr.,chromatophores [2],XX (key: X=1-6 hr; XX=6-24 hr)
same,minimal effective concentration,chromatophores [7],1 to 100 µg/mL
COP(=O)(OC)C(O)C(Cl)(Cl)Cl (stereo not drawn) [Trichlorfon],Chromatophore response Erythrophores,erythrophores,Imp. (FS)
same,Chromatophore response Iridophores,iridophores,Hue change (FS)
same,Response time Hr.,chromatophores [2],X (key: X=1-6 hr; XX=6-24 hr)
CCOP(=O)(OCC)Oc1ccc([N+](=O)[O-])cc1 [Paraoxon],Chromatophore response Melanophores,melanophores,A/I (FS)
same,Chromatophore response Erythrophores,erythrophores,Aggr. (FS)
same,Chromatophore response Iridophores,iridophores,Hue changes (FS)
CCn1cc(C(=O)O)c(=O)c2ccc(C)nc21 [Nalidixic acid],2-Cell Cytosensor (second cell type included),[6],Normal
same,Response time Hr.,chromatophores [2],XX (key: X=1-6 hr; XX=6-24 hr)
same,minimal effective concentration,chromatophores [7],1 to 100 µg/mL
